# Article PMC11532403 (Signal Transduction and Targeted Therapy, 2024)
# Read-outs that look alike come from different tables or passages of the source.
# Columns and labels:
# [1] = system: RET-altered / thyroid / lung tumors; conditions: cited from earlier work
# [2] = system: RET; conditions: cited from earlier work
# [3] = system: patients; conditions: cited from earlier work
# [4] = molecular target: hERG potassium channel (Homo sapiens, UniProt Q12809); set-up: method as in literature; conditions: in vitro GLP hERG assay, ref literature; cited from earlier work
# [5] = system: HEK293T-KIF5B-RET^V804M xenograft; assay: Tumor xenograft model; assay type: in vivo, BALB/c nude mice; conditions: 20 mg/kg twice daily, 14 days
# Description: All procedures relating to animal handling, care, and treatment were performed according to the Beijing Laboratory Animal Management Regulations. 6-week-old male BALB/c nude mice were inoculated subcutaneously into the flank with Baf3-CCDC6-RET^WT (5*10^6 cells/ 0.1 mL/ each), Baf3-CCDC6-RET^M918T (5*10^6 cells/0.1 mL/each), Baf3-CCDC6-RET^V804M (5*10^6 cells/ 0.1 mL/ each), or HEK293T-KIF5B-RET^V804M (5*10^6 cells/ 0.1 mL/ each). Mice were randomized by tumor size into groups of 10 to 12 when tumor volume reached approximately 100-150 mm^3. […] Tumor size and body weight were measured two times each week, and tumor volume was calculated with the following formula: [length × (width)^2]/ 2. Statistical significance was calculated by using two-way ANOVA test to assess the difference in tumor volumes between the control (vehicle-treated) and treatment groups.
# [6] = system: MET; set-up: method as in earlier work; conditions: read-out: MET IC50 ± SD; cited from earlier work
# [7] = system: VEGFR-2; set-up: method as in earlier work; conditions: read-out: VEGFR-2 IC50 ± SD; cited from earlier work
# Sequence of hERG potassium channel (Q12809 whole entry): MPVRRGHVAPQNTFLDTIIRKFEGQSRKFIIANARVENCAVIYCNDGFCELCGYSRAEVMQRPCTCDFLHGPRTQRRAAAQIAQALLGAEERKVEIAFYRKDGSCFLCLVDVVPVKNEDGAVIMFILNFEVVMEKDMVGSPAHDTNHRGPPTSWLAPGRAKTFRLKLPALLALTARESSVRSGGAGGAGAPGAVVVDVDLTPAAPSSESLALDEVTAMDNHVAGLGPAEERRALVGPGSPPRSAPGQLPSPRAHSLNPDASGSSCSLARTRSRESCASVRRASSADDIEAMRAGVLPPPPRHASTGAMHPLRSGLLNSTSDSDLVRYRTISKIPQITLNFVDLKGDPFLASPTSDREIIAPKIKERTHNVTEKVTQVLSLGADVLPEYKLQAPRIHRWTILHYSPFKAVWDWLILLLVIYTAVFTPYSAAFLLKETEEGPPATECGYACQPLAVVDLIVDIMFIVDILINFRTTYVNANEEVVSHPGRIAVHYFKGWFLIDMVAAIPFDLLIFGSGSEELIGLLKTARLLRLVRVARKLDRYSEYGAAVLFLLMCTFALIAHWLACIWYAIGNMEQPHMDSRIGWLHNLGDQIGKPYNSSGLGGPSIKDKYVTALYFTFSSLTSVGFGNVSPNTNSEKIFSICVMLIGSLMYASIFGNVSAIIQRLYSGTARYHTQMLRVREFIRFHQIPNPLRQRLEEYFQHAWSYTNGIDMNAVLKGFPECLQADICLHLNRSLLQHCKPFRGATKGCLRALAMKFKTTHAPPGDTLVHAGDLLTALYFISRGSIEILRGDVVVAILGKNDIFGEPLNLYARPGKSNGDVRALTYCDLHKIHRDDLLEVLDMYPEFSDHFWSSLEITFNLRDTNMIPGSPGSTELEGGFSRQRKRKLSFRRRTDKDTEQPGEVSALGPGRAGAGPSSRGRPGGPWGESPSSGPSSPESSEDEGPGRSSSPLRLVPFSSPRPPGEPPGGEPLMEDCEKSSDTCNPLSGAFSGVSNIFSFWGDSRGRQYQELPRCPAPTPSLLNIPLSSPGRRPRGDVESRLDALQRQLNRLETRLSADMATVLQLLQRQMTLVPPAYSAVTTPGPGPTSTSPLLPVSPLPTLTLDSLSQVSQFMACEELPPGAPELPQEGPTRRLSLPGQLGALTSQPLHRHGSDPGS
smiles,measurement,setting,value
CNC(=O)c1cc(Oc2ccc(NC(=O)Nc3ccc(Cl)c(C(F)(F)F)c3)cc2)ccn1 [sorafenib],PR rate,[1]; DECISION ref 80,12.2%
CO[C@]1(C(=O)N[C@@H](C)c2ccc(-n3cc(F)cn3)nc2)CC[C@H](c2nc(C)cc(Nc3cc(C)[nH]n3)n2)CC1 [pralsetinib],Grade ≥ 3 TRAEs,"[3]; ARROW ref 22,29",54%
same,Grade ≥ 3 anemia,"[3]; ARROW ref 22,29",12%
same,Grade ≥ 3 hypertension,"[3]; ARROW ref 22,29",12%
same,Grade ≥ 3 leukopenia,"[3]; ARROW ref 22,29",8%
same,Grade ≥ 3 lymphopenia,"[3]; ARROW ref 22,29",9%
same,Grade ≥ 3 neutropenia,"[3]; ARROW ref 22,29",20%
same,TRSAEs,"[3]; ARROW ref 22,29",24%
same,Treatment-induced deaths,[3],0.4%
same,Treatment-induced discontinuations,[3],7%
same,Treatment-induced dose reductions,[3],38%
same,Complete response,"[1]; ARROW, NSCLC ref 101",14%
same,Patients with tumor shrinkage,"[1]; ARROW, NSCLC ref 101",95%
same,ORR,"[1]; ARROW, RET fusion-positive NSCLC ref 101",61%
same,ORR,"[1]; ARROW, RET fusion-positive NSCLC, previously treated ref 29",59%
same,ORR,"[1]; ARROW, RET fusion-positive NSCLC, treatment-naïve ref 29",72%
same,ORR,"[1]; ARROW, RET-mutant MTC previously treated with vandetanib ref 101",60%
same,ORR,"[1]; ARROW, treatment-naïve MTC ref 101",74%
same,ORR,"[1]; ARROW, treatment-naïve RET-mutant MTC ref 31",71%
COc1cc2nccc(Oc3ccc(NC(=O)NC4CC4)c(Cl)c3)c2cc1C(N)=O [lenvatinib],Patients with grade 3 or higher AEs,[3]; NCT01877083 ref 93,92%
same,ORR,"[1]; NCT01877083, RET fusion NSCLC, 24 mg/d ref 93",16%
same,DCR,[1]; NCT01877083 ref 93,76%
same,mPFS,[1]; NCT01877083 ref 93,7.3 months
COc1ccc(CN2C3CC2CN(c2ccc(-c4cc(OCC(C)(C)O)cn5ncc(C#N)c45)cn2)C3)cn1 [selpercatinib],IC50,[4],1100 nM
same,Grade ≥ 3 TRAEs,[3]; LIBRETTO-001 ref 28,38.6%
same,Grade ≥ 3 hypertension,[3]; LIBRETTO-001 ref 28,13.2%
same,Grade ≥ 3 increased ALT,[3]; LIBRETTO-001 ref 28,9.0%
same,Grade ≥ 3 increased AST,[3]; LIBRETTO-001 ref 28,6.3%
same,TRSAEs,[3]; LIBRETTO-001 ref 28,11%
same,Treatment-induced deaths,[3],0.1%
same,Treatment-induced discontinuations,[3],3%
same,Treatment-induced dose reductions,[3],41%
same,TGI,[5],45.2%
same,ORR,"[1]; LIBRETTO-001, 19 RET fusion-positive thyroid cancer ref 96-97",79%
same,ORR,"[1]; LIBRETTO-001, 39 NSCLC without systemic therapy ref 96-97",84%
same,ORR,"[1]; LIBRETTO-001, 105 RET fusion-positive NSCLC ref 96-97",64%
same,ORR,"[1]; LIBRETTO-001, NSCLC, previously treated ref 28",61%
same,ORR,"[1]; LIBRETTO-001, RET-mutant thyroid cancer, 55 previously treated ref 96-97",69%
same,ORR,"[1]; LIBRETTO-001, RET-mutant thyroid cancer, 88 not previously treated ref 96-97",73%
same,ORR,"[1]; LIBRETTO-431, NSCLC, treatment-naïve ref 30",84%
same,ORR,"[1]; LIBRETTO-531, RET-mutant MTC ref 32",69.4%
same,1-year DoR rate,[1]; previously treated ref 28,73.1%
same,1-year PFS rate,[1]; previously treated ref 28,70.5%
same,1-year DoR rate,[1]; treatment-naïve ref 28,66.1%
same,1-year PFS rate,[1]; treatment-naïve ref 28,70.6%
COc1cc2nccc(Oc3ccc(NC(=O)C4(C(=O)Nc5ccc(F)cc5)CC4)cc3)c2cc1OC [cabozantinib],IC50,[6],1.3 ± 1.2 nM
same,IC50,[7],0.035 ± 0.01 nM
same,ORR,"[1]; NCT00704730, MTC ref 89",28%
same,mPFS,"[1]; NCT00704730, MTC, 140 mg/d ref 89",11.2 months
same,mOS,[1]; RET M918T-positive subgroup ref 89,44.3 months
